Data from patent US9151743B2, “Use of EEF1A as biomarker and a method of screening MetAP2 inhibitors” (MERCK PATENT GMBH, priority 2008, dated 2015).

Assays:
MetAP2 = MetAP2 (Homo sapiens, UniProt P50579); experiment: Inhibition of MetAP2 activity: cleavage of tripeptide Met-Ala-Ser, enzyme-coupled detection of methionine; format: biochemical
EEF1A1 in bEND3 cells = experiment: EEF1A1 electrophoretic mobility shift in IEF gel, bEND3 cell extracts; format: cell-based, mouse; settings: for EEF1A1 mobility shift versus negative controls (FIG. 10): bEND3 cells, 48 h, concentrations of Table 1
Experimental: (§1) Cellular extracts were electrophoretically separated for detailed analysis. Isoelectric focusing electrophoresis was performed in a gradient range of pH 7-9. The IEF gels (CleanGel IEF ultra ETC1001-52 from ETC, Germany) were re-hydrated in 7 M urea, 2 M thiourea, 1% DTE, 4% CHAPS, 3%, Servalyte 7-9 for 120 min, and assembled on a Multiphor II electrophoresis unit (GE Healthcare). Samples (5 μl) were applied close to the anode and run with anode buffer (6 M glycine) and cathode fluid 10 (Serva, Germany). […] Separation was performed at 2000 V for 210 min, followed by band sharpening at 2500 V for 10 min. After removal the gel was equilibrated in transfer buffer (50 mM Tris-HCl pH 7.5, 4 M guanidinium chloride, 1 mg/ml DTT) for a diffusion blot onto PVDF membrane and run overnight. Subsequently, the membrane was stained either with Coomassie Blue or immunostained with rabbit PcAb anti-human EEF1A1 (Proteintech Group, USA; 11402-1-AP) for 3 h and detected with ECL-Plus reagent (GE Healthcare).
The compounds used were characterized as inhibitors of MetAP2 and inhibitors of HUVEC cell proliferation with the indicated potencies (IC50).

HUVEC endothelial cells = experiment: Inhibition of HUVEC cell proliferation (colorimetric BrdU-Elisa); settings: Homo sapiens, 72 h, read-out: Inhibition of HUVEC proliferation (BrdU incorporation) (IC50)
Experimental: In this case the compounds were incubated in serial dilutions with the HUVEC endothelial cells for 72 h and subsequently processed for BrdU detection.

[1] = test system: bEND3, HT1080, HCT116 cells (EEF1A1 Band 2); experiment: IEF separation of cellular extracts after MetAP2 inhibitor treatment, Coomassie Blue staining; format: cell-based, mouse, human; settings: 100 nM TNP-470; 1 μM A-832234; versus DMSO-treated cells
Experimental: as §1
IEF separation of cellular extracts after treatment of different endothelial and cancer cells (mouse: bEND3, human: HT1080, HCT116) was performed in a range of pH 7-9 (FIG. 1). Comparing extracts from DMSO-treated and MetAP2 inhibitor-treated (100 nM TNP-470; […] . A zoomed view is shown in FIG. 2.

Sequence of MetAP2 (P50579 whole entry, species assumed): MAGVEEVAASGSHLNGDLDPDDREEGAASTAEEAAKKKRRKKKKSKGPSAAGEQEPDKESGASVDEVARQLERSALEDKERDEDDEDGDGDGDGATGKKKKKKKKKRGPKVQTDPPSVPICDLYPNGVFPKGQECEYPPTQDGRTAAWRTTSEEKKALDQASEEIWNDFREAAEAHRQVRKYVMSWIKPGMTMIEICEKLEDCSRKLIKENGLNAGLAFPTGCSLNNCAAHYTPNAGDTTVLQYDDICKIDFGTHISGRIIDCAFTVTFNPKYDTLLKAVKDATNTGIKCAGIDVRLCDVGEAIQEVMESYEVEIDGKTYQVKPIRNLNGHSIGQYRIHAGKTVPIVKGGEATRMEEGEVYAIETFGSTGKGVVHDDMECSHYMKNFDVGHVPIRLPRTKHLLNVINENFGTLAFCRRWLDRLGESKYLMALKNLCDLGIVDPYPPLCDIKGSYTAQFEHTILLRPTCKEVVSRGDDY

SMILES | IC50 (MetAP2) [nM] | EEF1A1 mobility shift, time course (EEF1A1 in bEND3 cells; bEND3 cell extract, TNP470, up to 48 h) | EEF1A1 mobility shift versus negative controls (FIG. 10) (EEF1A1 in bEND3 cells) | IC50 (HUVEC endothelial cells) [nM] | new protein band (Band 2) after IEF pH 7-9 [1]
CO[C@@H]1[C@H](OC(=O)NC(=O)CCl)CC[C@]2(CO2)[C@H]1[C@@]1(C)O[C@@H]1CC=C(C)C [TNP470] | 14 | a second band (Band 2) with increasing intensity was already to be seen after 2 h | active MetAP2 inhibitors | 0.1 | a novel protein band
CCN(CC)C/C=C\c1cc(F)ccc1S(=O)(=O)Nc1ccc2c(c1C(=O)O)CCCC2 [Compound A-832234, 2-[2-((Z)-3-Diethylamino-propenyl)-4-fluoro-benzenesulfonylamino]-5,6,7,8-tetrahydro-naphthalene-1-carboxylic acid] | – | – | active MetAP2 inhibitors | – | a novel protein band
